From patent US9315531B2, “Titanocene-gold derivatives comprising thiolato ligands” (Research Foundation of the City University of New York, priority 2014, dated 2016) come the findings set out here.

One data set has as its system Caki-1. Briefly: Cell viability assay (XTT), Caki-1. The following applies: 72 h incubation. It counts as cell-based, human. The text has this: (§1) Cell Culture: Human renal cell carcinoma lines A498, Caki-1 and UO31, as well as the human prostate carcinoma cell lines DU145 and PC3 were newly obtained for these studies from the American Type Culture Collection (ATCC) (Manassas, Va., USA) and cultured in Roswell Park Memorial Institute (RPMI-1640) (Mediatech Inc., Manassas, Va.) media containing 10% fetal bovine serum (FBS, Life Technologies, Grand Island, N.Y.), 1% Minimum Essential Media (MEM) nonessential amino acids (NEAA, Mediatech) and 1% penicillin-streptomycin (PenStrep, Mediatech). HEK-293T cells were newly purchased from ATCC (Manassas, Va., USA) and maintained in Dulbecco's modified Eagle's medium (DMEM) (Mediatech) supplemented with 10% FBS, 1% NEAA and 1% PenStrep. Normal human renal epithelial cells (RPTC) were purchased from Lifeline Cell Technology (Lifeline Cell Technology, Frederick, Md., USA) and maintained in Lifeline's Renal Life Medium from Lifeline Cell Technology supplemented with 2.4 mM L-glutamine, 5 μg/mL rh insulin, 1.0 nM epinephrine, 10 nM triiodothyronine, 0.1 μg/mL hydrocortisone hemisuccinate, 10 ng/mL rhEGF, 0.50% FBS, 5 μg/mL transferrin PS. All cells were cultured at 37° C. and 5% CO2 in a humidified incubator.
The optical absorbance of each well in a 96-well plate was quantified using BioTek ELx808 absorbance microplate reader (BioTek Winooski, Vt.) set at 450 nm wavelength. The percentage of surviving cells was calculated from the ratio of absorbance of treated to untreated cells.
(In general: Formazan colour is commonly taken as a measure of viable cells.)

The test system of the next data set is HEK-293T. In words: Cell viability assay (XTT), HEK-293T. The format is cell-based. The settings on record: 72 h incubation; non-tumorigenic human embryonic kidney cell line.
The procedure of data set [1]: The lethal dose (LD) and maximum tolerated doses (MTD) of compound 2 were evaluated in C57/BL6 mice (see experimental for details). […] Twenty-four hours after the last dose all mice used in the MTD study were euthanized and blood plasma, liver, spleen and kidneys were collected and used for histological analysis.
Lethal and maximum tolerated doses (LD and MTD): Determination of lethal and maximum tolerated doses (LD and MTD) in mice: The preliminary toxicity testing of compound 2 was performed in C57BL/6 female mice six to eight weeks of age, maintained in accordance with institutional guidelines at the University of Hawaii Cancer Center (UHCC) governing the care of laboratory animals (IACUC number: A3423-01). To determine the lethal dose, mice were treated for five consecutive days at dosages ranging from 1.5 mg/kg/day to 6 mg/kg/day. One mouse per dose was used. Mice were weighed every forty-eight hours, and sacrificed twenty-four hours after the last dose. […] In order to determine the maximum tolerated dose (MTD) the animals were monitored by trained individuals for pain and distress as appropriate for the animal, under conditions and by procedures established by the UHCC vivarium veterinarian staff and research personnel (BTE). The maximum tolerated dose (MTD) was determined by observing the progression of the mice treated at doses below the lethal dose. Body weights, changes in behavior and signs of distress were recorded. The dose at which neither debilitating effects nor sign of distress were observed was set as the MTD. More specifically the signs for distress monitored were: 1. Decreased food and water consumption; 2. […] Abnormal posture/positioning (e.g., head-pressing, hunched back); 4. Unkempt appearance (erected, matted, or dull haircoat); 5. Self-mutilation, gnawing at limbs; 6. Excessive self-imposed isolation/hiding. […] One group of mice was treated with the solvent (negative control).

Data set [2] in a line: Solubility in DMSO/aqueous mixtures. The format is physicochemical. The following applies: at micromolar concentrations. The text has this:
Both compound 2 and compound 3 were less acidic than titanocene dichloride and were soluble in DMSO/water, DMSO/PBS and DMSO/media (1:99) mixtures at micromolar concentrations. These compounds were unusually stable methyl-containing titanocene moieties that were stable as solids at room temperature, while exposed to air in CDCl3 solution for at least five days.

For a further data set, the system named is MAPKAPK3. In words: Protein kinase expression in Caki-1 whole cell lysates (Western blot), MAPKAPK3. The settings on record: Caki-1, by 12 hours post-treatment. It counts as cell-based, human. (Immunoblotting shows a protein as a band on a membrane.)
For a further data set, the system named is RPTC. Briefly: Cell viability assay (XTT), RPTC. The format is cell-based. The following applies: 72 h incubation; human renal proximal tubular cells.
From the text: as §1
Cell Viability Assay: Cells were seeded at a concentration of 5000 cells/90 μl per well of either RPMI or DMEM without phenol red and without antibiotics, supplemented with 10% FBS and 2 mM L-glutamine into tissue culture grade 96-well flat bottom microplates (BioLite Microwell Plate, Fisher Scientific, Waltham, Mass., USA) and grown for 24 h at 37° C. in a humidified incubator. Afterwards, the intermediate dilutions of the compounds were added to the wells (10 μL) to obtain a final concentration ranging from 0.1 to 200 μM, and the cells were incubated for 24 h or 72 h. […] The optical absorbance of each well in a 96-well plate was quantified using BioTek ELx808 absorbance microplate reader (BioTek Winooski, Vt.) set at 450 nm wavelength. The percentage of surviving cells was calculated from the ratio of absorbance of treated to untreated cells.

In another data set the test system is plasmid pBR322 DNA. Briefly: Electrophoresis mobility shift assay. The format is binding. The settings on record: metal/DNAbp ratios 0.25-2.0, 37° C., 20 h.

Experimental for HEK-293T: HEK-293T cells were newly purchased from ATCC (Manassas, Va., USA) and maintained in Dulbecco's modified Eagle's medium (DMEM) (Mediatech) supplemented with 10% FBS, 1% NEAA and 1% PenStrep. […] All cells were cultured at 37° C. and 5% CO2 in a humidified incubator.
Experimental for MAPKAPK3: The Caki-1 cells were then lysed and a Western blot analysis was performed with anti-MAPKAPK-3 antibody. Blots were probed with anti-β-Actin antibody as a control for protein loading.
Cell lysis and immunoblotting: Caki-1 cells were seeded into 10-cm dishes at a density of 2.2×10^6 and incubated for 24 hours. […] After microcentrifuging for 5 minutes at 4° C., pellets were treated with ice-cold lysis buffer with cell extraction buffer (BioSource, Camarillo, Calif.) containing 0.1% protease inhibitors and 1% phosphatase inhibitors cocktail (Fisher Scientific, Pittsburgh, Pa.) for 10 minutes, then sonicated for 10 seconds three times, and placed on ice. The lysed cells were centrifuged at 10,000×g at 4° C. for 10 minutes to remove the pellets representing the insoluble cell fraction.
The protein concentration was determined with BCA protein dye reagent (Pierce, Fisher Scientific Pittsburgh, Pa.). […]
Experimental for plasmid pBR322 DNA: Agarose gel electrophoresis assays were performed whereby decreased electrophoretic mobility of both forms were taken as evidence of metal-DNA binding.
Mobility Shift Assay: 10 μL aliquots of pBR322 plasmid DNA (20 μg/mL) in buffer (5 mM Tris/HCl, 50 mM NaClO4, pH=7.39) were incubated with different concentrations of the compounds (2, 3, 4, 5), and titanocene dichloride) (in the range 0.25 and 4.0 metal complex:DNA bp) at 37° C. for 20 h in the dark. Samples of free DNA and cisplatin-DNA were prepared as controls. After the incubation period, the samples were loaded onto the 1% agarose gel. The samples were separated by electrophoresis for 1.5 h at 80 V in Tris-acetate/EDTA buffer (TAE). Afterwards, the gel was stained for 30 min with a solution of GelRed nucleic acid stain.

Broadly, the IC50 is the concentration that gives 50% inhibition. The low end stands for greater potency in that assay, the high end for weaker potency in that assay. As to “[(η-C5H5)2TiMe(μ-mba)Au(PPh3)] [Compound 2]”, the values for the half-inhibitory concentration (IC50) in the data set with Caki-1, with HEK-293T and in the data set with RPTC were 120 ± 3 nM, 490 ± 0.8 nM and 2670 ± 120 nM, respectively. Besides, the “necropsy findings at MTD” value in data set [1] (10 mg/kg/day compound 6, 5 mg/kg/day compound 2) is “normal liver and slightly enlarged spleens”. In data set [1] (C57/BL6 mice, no visible signs of distress over seven days), the “maximum tolerated dose (MTD)” value was determined as 5 mg/kg/day. Moreover, in data set [1] (C57/BL6 mice, once daily subcutaneous injection), the “lethal dose (LD)” value is on record as 6 mg/kg/day. Moreover, in data set [2], the “solubility in DMSO/water, DMSO/PBS and DMSO/media (1:99) mixtures” value is given as “soluble”. Moreover, in the data set on MAPKAPK3, the “expression of MAPKAPK3” value is listed as “dramatic decreases in expression”. In the data set with plasmid pBR322 DNA, the “effect on electrophoretic mobility of plasmid DNA forms” value was “did not affect the mobility”.
